Literature values in patent US20080312245A1, “Methods and compositions for treating acne and other infectious diseases” (priority 2007, published 2008).

Cc1ncc([N+](=O)[O-])n1CCO [Metronidazole, 2-methyl-5-nitro-1H-imidazole-1-ethanol]
solubility in alcohol: slightly soluble
